# Reference: article PMC9133015 (Nature Communications, 2022)
# Where “and” joins values, the source holds several entries; their conditions need not be identical. Equal values may be shown once. Entries after “also recorded” stand apart in the source; their conditions may differ.
# What was measured:
# PC-3 cells = experiment: Cell growth assay (5-day course); format: cell-based, human; conditions: for optical density / Relative proliferation rate mean / Relative proliferation rate: PC-3; for optical density / Relative proliferation rate: replicates
# DU145 xenograft [1] = experiment: H&E and Ki67 staining of xenograft tumor tissues; format: in vivo, BALB/c nude mice; conditions: replicates
# DU145 xenograft [2] = experiment: In vivo antitumor activity, DU145 xenograft mouse model; parameters: species or system BALB/c nude mice; conditions: for Tumor weight (Fig. 7c): individual mice; for Tumor volume (Fig. 7a): in cm³ (unit assumed)
# PC-3 xenograft = experiment: In vivo antitumor activity, PC-3 xenograft mouse model; parameters: species or system BALB/c nude mice; conditions: 100 mg/kg (block headed at r39), day 1, individual mice
# [3] = YK-2-69 (100 mg/kg), Day 37, individual mice, 100 mg/kg
# [4] = YK-2-69 (100 mg/kg), Day 39, individual mice, 100 mg/kg
# [5] = YK-2-69 (100 mg/kg), Day 41, individual mice, 100 mg/kg
# [6] = YK-2-69 (100 mg/kg), Day 43, individual mice, 100 mg/kg
# [7] = YK-2-69 (100 mg/kg), Day 45, individual mice, 100 mg/kg
# [8] = YK-2-69 (100 mg/kg), Day 49, individual mice, 100 mg/kg
# [9] = YK-2-69 (200 mg/kg), Day 1, individual mice, 200 mg/kg
# [10] = YK-2-69 (200 mg/kg), Day 5, individual mice, 200 mg/kg
smiles,measurement,setting,value
CCN1CCN(C(=O)c2ccc(Nc3ncc(F)c(-c4ccc5nc(N(C)C)sc5c4)n3)nc2)CC1 [YK-2-69],optical density,"PC-3 cells; 2 µM, day 4",1.548 and 1.523 and 1.538
same,Relative proliferation rate mean,"PC-3 cells; 4 µM, day 0",1
same,Relative proliferation rate,"PC-3 cells; 4 µM, day 0",1
same,optical density,"PC-3 cells; 4 µM, day 0",0.274
same,Relative proliferation rate mean,"PC-3 cells; 4 µM, day 1",1.161
same,Relative proliferation rate,"PC-3 cells; 4 µM, day 1",1.103 and 1.191 (2×)
same,optical density,"PC-3 cells; 4 µM, day 1",0.302 and 0.326 (2×)
same,Relative proliferation rate mean,"PC-3 cells; 4 µM, day 2",1.646
same,Relative proliferation rate,"PC-3 cells; 4 µM, day 2",1.545 and 1.706 and 1.687
same,optical density,"PC-3 cells; 4 µM, day 2",0.423 and 0.467 and 0.462
same,Relative proliferation rate mean,"PC-3 cells; 4 µM, day 3",1.9905
same,Relative proliferation rate,"PC-3 cells; 4 µM, day 3",2.023 and 1.947 and 2.001
same,optical density,"PC-3 cells; 4 µM, day 3",0.554 and 0.533 and 0.548
same,Relative proliferation rate mean,"PC-3 cells; 4 µM, day 4",3.8824
same,Relative proliferation rate,"PC-3 cells; 4 µM, day 4",3.992 and 3.985 and 3.671
same,optical density,"PC-3 cells; 4 µM, day 4",1.093 and 1.091 and 1.005
same,"cell proliferation, 5-day course/colony (in words)","PC-3 cells; PC-3 cells, dose-dependent",significantly inhibited the cell proliferation
same,Positive rate ( % ) (Fig. 7f),"DU145 xenograft [1]; DU145, High dose",15.32% and 14.77% and 16.1%
same,Positive rate ( % ) (Fig. 7f),"DU145 xenograft [1]; DU145, Low dose",20.24% and 19.5% and 21.1%
same,body weight of mice (in words),"DU145 xenograft [2]; DU145 xenograft, 200 mg/kg orally once a day",increased gradually
same,antitumor activity (in words),"DU145 xenograft [2]; DU145 xenograft, 200 mg/kg orally once a day, seven weeks, 200 mg/kg",much better antitumor activities than both enzalutamide and palbociclib; also recorded: decreased the volume of tumor since the 31st day
same,Tumor weight (Fig. 7c),"DU145 xenograft [2]; High dose, in g (unit assumed)",0.51 and 0.47 and 0.43 and 0.45 and 0.62 and 0.73 and 0.69 and 0.41
same,Tumor weight (Fig. 7c),"DU145 xenograft [2]; Low dose, in g (unit assumed)",1.34 and 1.32 and 1.29 and 1.36 and 1.47 and 1.24 and 1.68 and 1.73 and 1.54 and 1.49
same,Body weight (Fig. 7b),DU145 xenograft [2]; [3],26.5 and 24.2 and 25.7 and 25.5 (2×) and 24.9 and 24.6 and 25.2 and 25.6 and 26.6
same,Tumor volume (Fig. 7a),DU145 xenograft [2]; [3],0.9849 and 0.8117 and 1.322 and 0.8631 and 0.9203 and 0.6445 and 0.8644 and 1.073 and 1.152 and 1.1772
same,Body weight (Fig. 7b),DU145 xenograft [2]; [4],26.2 and 24.5 and 25.9 and 25.8 (2×) and 25.3 and 24.9 and 25.4 and 26 and 26.8
same,Tumor volume (Fig. 7a),DU145 xenograft [2]; [4],0.957 and 0.8113 and 1.305 and 0.8461 and 0.9452 and 0.6025 and 0.7668 and 1.032 and 1.21 and 1.322
same,Body weight (Fig. 7b),DU145 xenograft [2]; [5],26.4 and 24.6 and 26.1 and 25.8 and 25.6 (2×) and 25.2 and 26.3 and 26 and 26.5
same,Tumor volume (Fig. 7a),DU145 xenograft [2]; [5],1.01 and 0.8586 and 1.367 and 0.9073 and 0.9955 and 0.6291 and 0.7765 and 1.063 and 1.256 and 1.304
same,Body weight (Fig. 7b),DU145 xenograft [2]; [6],26.7 and 25 and 26.3 (2×) and 25.9 (2×) and 25.4 and 26.5 and 25.7 and 26.6
same,Tumor volume (Fig. 7a),DU145 xenograft [2]; [6],1.081 and 0.9018 and 1.428 and 0.9736 and 1.066 and 0.6924 and 0.8141 and 1.105 and 1.304 and 1.393
same,Body weight (Fig. 7b),DU145 xenograft [2]; [7],26.9 (2×) and 25.2 and 26.7 and 26.2 and 26.3 and 25.7 and 26.8 and 25.9 and 26.5
same,Tumor volume (Fig. 7a),DU145 xenograft [2]; [7],1.137 and 0.9183 and 1.533 and 1.03 and 1.104 and 0.7734 and 0.8511 and 1.184 and 1.29 and 1.475
same,Tumor volume (Fig. 7a),"DU145 xenograft [2]; YK-2-69 (100 mg/kg), Day 47, individual mice, 100 mg/kg",1.209 and 0.991 and 1.624 and 1.045 and 1.005 and 0.829 and 0.881 and 1.225 and 1.336 and 1.553
same,Body weight (Fig. 7b),"DU145 xenograft [2]; YK-2-69 (100 mg/kg), Day 47, individual mice, 100 mg/kg, in g (unit assumed)",27.2 and 25.5 and 26.9 and 26.3 and 26.6 and 25.8 and 27.1 and 26 and 26.8 and 27.4
same,Body weight (Fig. 7b),DU145 xenograft [2]; [8],27.5 and 25.8 and 27.1 (3×) and 26.6 and 26.9 and 26.1 and 27.3 and 26.2
same,Tumor volume (Fig. 7a),DU145 xenograft [2]; [8],1.289 and 1.004 and 1.711 and 1.157 and 1.055 and 0.8821 and 0.8937 and 1.296 and 1.303 and 1.663
same,Body weight (Fig. 7b),DU145 xenograft [2]; [9],19.6 and 20.5 and 20.2 (2×) and 19.9 and 20.3 and 20.7 and 21.4 and 21 and 20
same,Tumor volume (Fig. 7a),DU145 xenograft [2]; [9],0.07862 and 0.07877 and 0.07202 and 0.06915 and 0.0797 and 0.06867 and 0.07232 and 0.09045 and 0.0645 and 0.09096
same,Tumor volume (Fig. 7a),"DU145 xenograft [2]; YK-2-69 (200 mg/kg), Day 3, individual mice, 200 mg/kg",0.1045 and 0.1116 and 0.1049 and 0.08973 and 0.1165 and 0.1011 and 0.1007 and 0.1453 and 0.08834 and 0.1272
same,Body weight (Fig. 7b),"DU145 xenograft [2]; YK-2-69 (200 mg/kg), Day 3, individual mice, 200 mg/kg, in g (unit assumed)",19.9 and 20.6 and 20.5 and 20.2 and 20.7 and 21.5 and 21.3 and 20.3 and 20.1
same,Body weight (Fig. 7b),"DU145 xenograft [2]; YK-2-69 (200 mg/kg), Day 3, individual mice, in g (unit assumed)",21
same,Body weight (Fig. 7b),DU145 xenograft [2]; [10],20.2 and 20.9 and 20.8 and 20.4 and 21.1 (2×) and 21.8 and 21.6 and 20.3 and 20.5
same,Tumor volume (Fig. 7a),DU145 xenograft [2]; [10],0.1323 and 0.1488 and 0.1486 and 0.1179 and 0.1568 and 0.1343 and 0.1497 and 0.2074 and 0.1183 and 0.1702
same,body weight (Figure S10b),PC-3 xenograft,19.2 (2×) and 18.5 and 18.7 and 18.4 and 18.1 and 19.9 and 20.5
